Blank lines part the entries; values can stand above or below the compound they belong to.
How the values were obtained:
[1] = test system: U-46619-induced pulmonary vasoconstriction; test: CO inhaled alone or in combination with BAY 41-2272 during U-46619-induced pulmonary vasoconstriction; format: in vivo
From the text: Systemic hemodynamics, lung gas exchange, and transpulmonary cGMP release were also unchanged by CO inhalation. Arterial concentrations of carboxyhemoglobin gradually rose from 1.0±0.2% to 4.7±0.4% (P<0.01) and from 1.4±0.1% to 5.2±0.2% (P<0.01), respectively, after breathing 500 ppm CO alone or in combination with BAY 41-2272.

[2] = test system: mouse model of pulmonary hypertension; test: Mouse model of pulmonary hypertension (U46619): pulmonary and systemic arterial pressures; format: in vivo, mice
Protocol: A mouse model of pulmonary hypertension was used to examine the combined effects of YC-1 and inhaled NO. Three mice (average weight 25 g) were anesthetized, their chest opened, catheters were placed in the carotid and pulmonary arteries, and pulmonary and systemic arterial pressures were recorded (FIG. 4). U46619, a thromboxane analogue was administered intravenously to induce pulmonary vasoconstriction. NO (4 parts per million) was added to the inspired gas, and pulmonary vasodilation was measured. Thereafter, NO inhalation was discontinued, and the duration of the pulmonary vasodilator effect was measured.
YC-1 was administered as boluses over one minute (10, 50 and 100 ug), and both pulmonary artery pressure and systemic blood pressure were measured. Thereafter, YC-1 was administered as an infusion (5 ug/min), and the rate of U46619 infusion was increased (2- to 3-fold) to re-establish pulmonary vasoconstriction. The pulmonary vasodilator response to breathing 4 ppm NO was measured, and duration of pulmonary vasodilation after discontinuing NO was assessed.

[3] = test system: awake lambs; test: U-46619-induced pulmonary hypertension in awake lambs: hemodynamics, gas exchange, cGMP release; format: in vivo
Protocol: In awake lambs instrumented with vascular catheters and a tracheostomy tube, the thromboxane analog U-46619 was infused intravenously to increase mean pulmonary arterial pressure (PAP) to 35 mm Hg. After a stabilization period, seven animals received an intravenous infusion of BAY 41-2272 (Alexis Biochemicals, Lausen, Switzerland) at 0.03, 0.1, and 0.3 mg·kg^−1·h^−1 administered for 30 minutes each. In another eight animals, inhaled NO (2, 10, and 20 ppm) was administered in random order for 10 minutes each followed by 15 minute NO-free periods. An intravenous infusion of BAY 41-2272 (0.1 mg·kg^−1·h^−1) was then started. After increasing the infusion of U-46619 to maintain PAP at 35 mmHg, NO was inhaled as before BAY 41-2272. In an additional eight lambs, which received an intravenous infusion of the NO synthase inhibitor, L-NAME (25 mg/kg+5 mg·kg^−1·h^−1), together with U-46619, NO was inhaled before and during the infusion of BAY 41-2272.
Data were analyzed using repeated measures ANOVA followed by Dunnett adjustment. A p<0.05 was considered statistically significant.

[4] = YC-1 boluses over one minute (10, 50 and 100 ug)
[5] = BAY 41-2272 0.1 mg·kg^−1·h^−1, L-NAME 25 mg/kg+5 mg·kg^−1·h^−1 iv, n=8
[6] = BAY 41-2272 0.1 mg·kg^−1·h^−1 iv with inhaled NO, P<0.05
[7] = BAY 41-2272 infusion with NO inhaled at 10 and 20 ppm
[8] = BAY 41-2272 infusion with NO inhaled at 10 and 20 ppm, P<0.05 vs. baseline PH
[9] = BAY 41-2272 iv infusion 0.03, 0.1, 0.3 mg·kg^−1·h^−1, 30 min each, n=7
[10] = during BAY 41-2272 infusion, inhalation of 10 and 20 ppm NO, P<0.01 vs. baseline PH
[11] = inhaled NO alone at 20 ppm, P<0.05

Compound: [C-]#[O+] [CO, carbon monoxide]
- lung gas exchange ([1]; CO inhalation): unchanged
- systemic hemodynamics ([1]; CO inhalation): unchanged
- transpulmonary cGMP release ([1]; CO inhalation): unchanged
- vasodilator effect on U-46619-induced pulmonary vasoconstriction ([1]; inhalation of CO alone): no vasodilator effect

Compound: OCc1ccc(-c2nn(Cc3ccccc3)c3ccccc23)o1 [YC-1, 3-(5′-hydroxymethyl-2′-furyl)-1-benzylindazole]
- pulmonary vasodilator response to breathing NO ([2]; 4 ppm NO during YC-1 infusion (5 ug/min) vs NO alone): greater pulmonary vasodilator response than did breathing NO alone
- systemic vasodilation on addition of NO inhalation to YC-1 ([2]; 4 ppm NO, YC-1 infusion 5 ug/min): did not cause systemic vasodilation
- pulmonary vasodilation (pulmonary artery pressure) [2, 4]: induced both pulmonary and systemic vasodilation
- systemic vasodilation (systemic blood pressure) [2, 4]: induced both pulmonary and systemic vasodilation
- duration of pulmonary vasodilation after discontinuing NO inhalation ([2]; during YC-1 infusion (5 ug/min) vs before, P<0.01): greater during an infusion of YC-1 than before

- plasma levels of BAY 41-2272 ([1]; in vivo): remained stable
- plasma BAY 41-2272 concentrations ([3]; during the period of NO administrations, iv infusion 0.1 mg·kg^−1·h^−1): remained at a stable level
Compound: Nc1nc(-c2nn(Cc3ccccc3F)c3ncccc23)ncc1C1CC1 [BAY 41-2272, 3-(4-amino-5-cyclopropylpyrimidine-2-yl)-1-(2-fluorobenzyl)-1H-pyrazolo[3,4-b]pyridine]
- vasodilator effect on U-46619-induced pulmonary vasoconstriction ([1]; inhalation of CO following administration of / in combination with BAY 41-2272): no vasodilator effect
- pulmonary vasodilation induced by BAY 41-2272 in presence of L-NAME [3, 5]: but not pulmonary vasodilation
- systemic vasodilation induced by BAY 41-2272 in presence of L-NAME [3, 5]: abolished
- reduction of PAP induced by inhaled NO ([3]; BAY 41-2272 0.1 mg·kg^−1·h^−1 iv with inhaled NO 2, 10, 20 ppm, P<0.05): markedly enhanced
- reduction of PVRI induced by inhaled NO [3, 6]: markedly enhanced
- reduction of PVRI/SVRI induced by inhaled NO [3, 6]: markedly enhanced
- HR [3, 7]: remained unchanged
- MAP [3, 7]: remained unchanged
- central venous pressure (CVP) [3, 7]: remained unchanged
- reduction of right ventricle stroke work index (RVSWI) ([3]; BAY 41-2272 infusion with NO inhaled at 10 and 20 ppm vs inhaled NO alone, P<0.05): to a greater extent than did inhaled NO alone
- cardiac index (CI) [3, 8]: increments
- pulmonary capillary wedge pressure (PCWP) [3, 8]: minor reductions
- stroke volume index (SVI) [3, 8]: increments
- systemic vascular resistance index (SVRI) [3, 8]: minor reductions
- mean PAP (percent change from pre-treatment pulmonary hypertension value) [3, 9]: dose-dependent reductions
- pulmonary vascular resistance index (PVRI) (percent change from pre-treatment pulmonary hypertension value) [3, 9]: dose-dependent reductions
- reductions in mean PAP and PVRI compared with corresponding reductions in MAP and SVRI ([3]; BAY 41-2272 iv infusion 0.03-0.3 mg·kg^−1·h^−1, p<0.05): significantly greater
- increase of transpulmonary cGMP release ([3]; co-administration of BAY 41-2272 and inhaled NO vs inhaled NO alone, P<0.05): to a greater extent than did inhaled NO alone
- persistence of pulmonary vasodilation (T1/2) after NO was discontinued ([3]; during BAY 41-2272 infusion vs before, P<0.05): greater than that before the infusion
- P(A-a)O2 [3, 10]: reduced
- PaO2/FiO2 [3, 10]: augmented
- Qs/Qt [3, 10]: reduced

Compound: [N]=O [NO, Nitric oxide]
- T1/2 of return of PAP to baseline pulmonary hypertension after NO was discontinued ([3]; inhaled NO alone): < 1 min
- arterial methemoglobin concentrations ([3]; inhaled NO alone): no significant changes
- pulmonary vasodilation ([3]; inhaled NO alone 2, 10, 20 ppm, 10 min each): dose-dependent, selective pulmonary vasodilation
- transpulmonary cGMP release ([3]; inhaled NO alone 10 and 20 ppm, P<0.01): increased
- P(A-a)O2 [3, 11]: reduced
- PaO2/FiO2 [3, 11]: increased
- Qs/Qt [3, 11]: reduced
